Test results published in publication PMC12040169 (PLOS Biology, 2025).

Test: in vitro
Details: human, hela cells, % viability

In order of rising viability at 28.5 h, 10 µM:
1. CS(=O)(=O)N1CCC(C(=O)NC(c2ccccc2)c2ccccc2)CC1 [CBK269801]  77.8%
2. COc1ccc(NC(=O)C2CCCN2S(=O)(=O)c2ccc(OC)cc2)cc1 (stereo not drawn) [CBK070001]  78.1%
3. Cc1nc(N2CCCCC2)ncc1C(=O)NCCSc1nncn1C [CBK306955]  81.1%
4. CC(=O)c1ccc(-c2nc(NC(=O)c3cccs3)cnc2-c2ccc(F)cc2)s1 [CBK037558]  81.8%
5. CC1(C)Cc2ccccc2C(NCC(=O)O)=N1 [CBK262562]  83%
6. COC(=O)c1ccc(N2CCN(Cc3ccc(CO)o3)C(C)C2)cc1 (stereo not drawn) [CBK305394]  83.9%
7. O=C(Nc1ccc(S(=O)(=O)NCC2CCCO2)cc1)c1cc(-c2ccccc2)nc2ccccc12 (stereo not drawn) [CBK267537]  84.3%
8. COc1cccc(NC(=O)CC(CN2CCN(Cc3ccccn3)CC2)C(=O)O)c1 (stereo not drawn) [CBK286735]  85.1%
9. O=C(Cc1ccsc1)N1CCC(c2cc3cccnc3[nH]2)CC1 [CBK285000]  85.6%
10. Cc1nn(C)cc1-c1cncn1CCCC(C)(C)CO [CBK281492]  86.1%
11. O=C(Nc1ccccc1O)c1ccc2c(c1)C(=O)N(c1ccc(Sc3ccc([N+](=O)[O-])cc3)cc1)C2=O [CBK262092]  86.8%
12. CC(C)NC(=O)Cn1cnc2c1c(=O)n(C)c(=O)n2C [CBK133257]  86.9%
13. C=CCNC(=O)N1CC[C@H]2CC(=O)N(Cc3ccc(OC)cc3)CC[C@H]2C1 [CBK288790]  86.9%
14. Nn1c(SCC(=O)Nc2ccc3c(c2)OCCO3)nnc1-c1ccccn1 [CBK267551]  87.4%
15. CCCc1ccc(S(=O)(=O)Nc2nc(C)c(C(=O)O)s2)cc1 [CBK045555]  88.3%
16. O=C(Cc1ccccc1)N1CCN(Cc2ccccn2)CC1 [CBK263039]  88.6%
17. c1ccc(C(NCc2cnc(C3CCC3)s2)C2CCCC2)nc1 (stereo not drawn) [CBK304022]  88.6%
18. COc1ccc2nc(Nc3nc(-c4cccnc4)cs3)sc2c1 [CBK287482]  89.1%
19. CCN(CC)CCSc1nc2sc3c(c2c(=O)n1-c1ccc(OC)cc1)CCCC3 [CBK263308]  89.3%
20. COc1ccc(CCN(C(C)=O)C2CC(=O)N(c3ccccc3)C2=O)cc1OC (stereo not drawn) [CBK262349]  89.5%
21. CSc1ncc(CNCc2ccc3c(c2)OCO3)c(N)n1 [CBK074563]  89.6%
22. COCCc1nc(Cc2ccc(OC)cc2)nn1CC1COCCO1 (stereo not drawn) [CBK307521]  89.7%
23. CC(C)COC(=O)N1CCN(C2CCc3cc(-c4ccc([S+](C)[O-])cc4)ccc3C2)CC1 (stereo not drawn) [CBK173425]  89.8%
24. Cc1cc(=O)n(CC(=O)N2CCC3(CCCN(C(C)C)C3=O)C2)nc1C (stereo not drawn) [CBK307482]  90%
25. O=C(O)c1ccc(/C=N/NC(=O)c2ccco2)cc1 [CBK263569]  90.5%
26. COc1c(C)[nH]cc(CN(C)CCC(=O)Nc2cccc(F)c2)c1=O [CBK304201]  90.5%
27. Cc1ccc(Oc2c([N+](=O)[O-])c(C)nn2C)c(Br)c1 [CBK000283]  90.6%
28. COc1cc(C(=O)Nc2nc(Cc3n[nH]c(=S)n3C)cs2)ccc1C [CBK296683]  90.6%
29. CC(C)C1SC(=NC2CC3CCC2C3)N(C)C1=O (stereo not drawn) [CBK076727]  90.6%
30. Cn1nnc2c(N3CCN(C(=O)c4ccccc4)CC3)ncnc21 [CBK287830]  90.6%
31. COc1ccc2[nH]c(NCCCO)nc2c1 [CBK264155]  91.2%
32. Cn1ccnc1C1CCN(C(=O)NCc2cccc(F)c2)CC1 [CBK304606]  91.3%
33. C(#Cc1csc(COc2cncc(N3CCNCC3)n2)c1)c1ccccc1 [CBK200006G]  92.5%
34. CCC(Sc1nnc2c3ccccc3n(C)c2n1)C(=O)Nc1sc2c(c1C#N)CCCC2 (stereo not drawn) [CBK263031]  92.6%
35. Cc1ccc(CCC(=O)N2CCCC2c2nc3ccccc3[nH]2)o1 (stereo not drawn) [CBK284012]  93.3%
36. Cc1cn2c(nc1=O)OC[C@H]1O[C@@H]2C[C@H]1O [CBK201280]  93.5%
37. COc1cccc(NC(=O)CN2CCN(c3nc4ccc([N+](=O)[O-])cc4s3)CC2)c1 [CBK264089]  93.7%
38. Cc1ccc(NC(=O)CCSc2nnc3ccccn23)cc1 [CBK265563]  93.7%
39. Cc1nnc(SCCN2CCOC2=O)n1CCc1cccs1 [CBK304029]  93.7%
40. Cc1ccc(N2CC(c3nnc(N)o3)CC2=O)cc1 (stereo not drawn) [CBK288061]  93.8%
41. CCn1c(C(CC(C)C)NC(=O)c2ccco2)nc2cccnc21 (stereo not drawn) [CBK283523]  94.3%
42. COc1ccc2[nH]cc(CCNC(=O)c3ccc4nc[nH]c4c3)c2c1 [CBK122714]  94.5%
43. Cn1c(Cc2csc(NC(=O)c3ccc(Cl)cc3F)n2)n[nH]c1=S [CBK296635]  94.7%
44. CCN(CC)C(=O)CN(CCc1ccc(OC)c(OC)c1)C(=O)NCCCSC [CBK158725]  94.8%
45. Cn1c(=O)n(CC(=O)O)c(=O)c2c1nc(Br)n2Cc1ccccc1 [CBK026617]  94.8%
46. CN(C)CC(C)(C)CNC1CCN(C)CC1 [CBK261926]  95.2%
47. CC(C)c1cc(C(=O)N(Cc2ccccn2)CC2CCCO2)on1 (stereo not drawn) [CBK306579]  95.3%
48. COc1ccc(NC(=O)C2C3CCC(C3)C2C(=O)O)cc1OC (stereo not drawn) [CBK263684]  95.3%
49. Clc1cccc(-c2cncc(N3CCN(c4ccncc4)CC3)n2)c1 [CBK066099]  95.4%
50. COc1ccc(-c2nc(-c3ccncc3)ncc2C(=O)NC2CCCCC2)cc1 [CBK291111]  95.4%
51. O=C1NC2(CCC2)C(=O)N1Cc1nn(-c2ccccc2)c2c1CCC2 [CBK306383]  95.6%
52. Cc1ccc(C2(CN3CCN(Cc4ncc[nH]4)CC3)CC2)cc1 [CBK283306]  95.9%
53. Cc1ccc(C(=O)CC(C(=O)O)c2c(C)[nH]c3ccccc23)cc1 (stereo not drawn) [CBK269337]  96.1%
54. Cc1ccc(S(=O)(=O)Nc2ccnc(-c3ccc(CN4C(=O)CSC4=O)cc3)n2)cc1 [CBK067925]  96.1%
55. c1ccc(CC(NCc2c[nH]c3ccccc23)c2ccccc2)cc1 (stereo not drawn) [CBK262087]  96.4%
56. O=C(NCc1ccccc1OC1CCNC1)C1CCCO1 (stereo not drawn) [CBK024503T]  96.9%
57. Cc1nc(C)c(CC(=O)N2CCC(Oc3cccc(F)c3)CC2)s1 [CBK282223]  97.4%
58. CN(C(=O)c1ccccc1N)c1ccccc1 [CBK086716]  97.6%
59. CCN(CC)c1c(C)nc2ccc(C(=O)NCCN3CCNC3=O)cn12 [CBK145977]  97.8%
60. O=C(NCC1(c2ccccc2)CCOCC1)c1ccno1 [CBK067408]  98.2%
61. Cn1nnnc1SCc1nc(N)nc(Nc2ccccc2)n1 [CBK268092]  98.7%
62. COCCNC(=O)CC1Sc2ccccc2NC1=O (stereo not drawn) [CBK268443]  98.9%
63. N#Cc1ccc(CN2CCOC3(CCN(C(=O)OCc4ccccc4)CC3)C2)cc1 [CBK161103T]  99.1%
64. Cc1nc(N)sc1-c1nnc(SCC(=O)Nc2ccccc2C(F)(F)F)n1C [CBK267359]  99.5%
65. Cc1cc(C(=O)N2CCN(Cc3ccc(F)cc3Cl)CC2)no1 [CBK268126]  100%
66. Cc1cc(NC(=O)c2cc3ccccc3oc2=O)nc2c1c(=O)oc1ccccc12 [CBK287445]  100%
67. N#C/C(=C\c1ccc(-c2ccc(C(=O)O)cc2)o1)C(=O)NCc1ccco1 [CBK263322]  101%
68. Cc1ccc2c(c1)oc(=O)n2CCNC(=O)Cc1c[nH]c2ccccc12 [CBK284473]  101%
69. Cc1cccn2cc(CCNC(=O)CN3Cc4ccccc4C3)nc12 [CBK305166]  101%
70. CC1=C[C@@H](CNC(=O)c2ccccc2)[C@H](C(C)C)C[C@H]1CC(=O)O [CBK289213]  102%
71. COc1nccnc1OC1CCN(CCc2ccc(F)cc2)CC1 [CBK084259]  102%
72. CCC1CN(CC(=O)NCc2ccc(OCC(N)=O)cc2)CCO1 (stereo not drawn) [CBK305774]  102%
73. Cc1ccc(NS(=O)(=O)c2cc(C(=O)N3CCN(Cc4ccc5c(c4)OCO5)CC3)ccc2C)cc1 [CBK268521]  102%
74. CCC1CCCCN1C(=O)c1cc(C)nc(Cl)c1 (stereo not drawn) [CBK076748]  102%
75. Cc1cc(C)c2oc(-c3ccc(C)c(NC(=O)COc4ccccc4C)c3)nc2c1 [CBK263067]  103%
76. O=C(CSC1=NC(=O)C(c2ccccc2)C(=O)N1)NC1CCCCC1 (stereo not drawn) [CBK263804]  103%
77. O=C(NC(c1ccccc1)c1ccco1)C1CCN(Cc2cccc(Cl)c2)CC1 (stereo not drawn) [CBK148295]  103%
78. Nc1nc2cccnc2cc1-c1cccc(C(F)(F)F)c1 [CBK081200]  103%
79. CNC(=O)c1cnc(SC)nc1NCCc1c[nH]c2ccccc12 [CBK093597]  104%
80. CC(CN1CCCCC1)OC(=O)C(c1ccccc1)c1ccccc1 (stereo not drawn) [CBK265237C]  104%
81. O=C(C1CCCN(c2ccc3nncn3n2)C1)N1CCOCC1 (stereo not drawn) [CBK287901]  104%
82. O=C(O)c1ccc(CSc2nc(-c3ccccc3)cc(C(F)(F)F)n2)o1 [CBK269514]  105%
83. CN1CCN(c2nc(-c3ccc(-c4ccccc4)cc3)cnc2N)CC1 [CBK063421]  106%
84. Cn1cncc1C(=O)NC1Cc2ccccc2C1 [CBK200362]  107%
85. CCN1CC2(CCN(CC(N)=O)CC2)c2ccccc21 [CBK131485]  107%
86. N#Cc1cc(CN2CCCN(S(=O)(=O)c3ccc(C(=O)c4ccccc4)cc3)CC2)ccc1F [CBK062768]  109%
87. Cc1cc(=O)n(CC(=O)Nc2ccc3c(c2)OCO3)cn1 [CBK287835]  109%
88. CC(=O)Nc1ccc(N2C(=O)CC(NCCCN3CCOCC3)C2=O)cc1 (stereo not drawn) [CBK265236]  115%
89. COc1ccc(CCNC(=O)c2cc(-c3ccc(C)o3)nc3ccccc23)cc1OC [CBK265486]  117%

Same assay, conditions: human, hela cells, % viability, bulk resorufin, single well

With COc1cccc2c1OC1(CCN(C(=O)c3cccnc3)CC1)OC2 [CBK061070] the viability at 28.5 h, 10 µM was 95.7%.
